“Also recorded” adds a separate entry of the source.
Key:
hCB2 [1] = target: T1, hCB2 (Homo sapiens, UniProt P34972); test: Radioligand ([3H]CP-55,940) displacement binding in hCB2-CHO-K1 cell membranes
T1 construct: purchased PerkinElmer ES111-M400UA; host or cells: CHO-K1 cells stably transfected
Procedure: The assay was performed as described previously. […] Plasma membranes were from cultured CHO-K1 cells stably transfected with human CB2R (Perkin Elmer). Two microgram plasma membrane protein was used in a 1 mL reaction mixture. Ki values were derived by computerized curve fitting and using the Cheng-Prusoff equation to account for the affinity of the radioligand, using the GraphPad Prism 8 program (GraphPad Prism Software Inc.).

hCB2 [2] = target: T1, hCB2; test: [35S]GTPγS binding assay in hCB2-CHO-K1 cell membranes; type: biochemical
Procedure: Figure 2 Affinity and functional effects of novel MRI ligands on CB2 receptor in CHO cell membranes. (a) binding affinities (nM) and Emax (% and nM) of [^35S]-GTPγS binding to CHO membranes (PerkinElmer, Cat. No ES111-M400UA) expressing hCB2. (b) [^35S]-GTPγS binding to membranes as a factor of ligand concentration. Binding of [^35S]-GTPγS was determined as described in “Methods”. Non-specific binding was defined as 0% activity. The assay of GTPγS non-specific binding contains non-radioactive GTPγS.
[^35S] GTPγS binding was assayed as described earlier[65] with slight modifications. Briefly, hCB2-CHO-K1 cell membranes (4 µg) were incubated with 0.05 nM [^35S] GTPγS, and the indicated concentrations of ligands in TEM buffer (50 mM Tris–HCl, 0.2 mM EGTA, and 9 mM MgCl2, pH 7.4) containing 100 µM GDP, 150 mM NaCl, and 0.1% (w/v) bovine serum albumin in a total volume of 1 ml for 60 min at 30 °C.

cannabinoid receptor CB2 = cannabinoid receptor CB2 (Homo sapiens, UniProt P34972); test: [35S]GTP nucleotide exchange (GEF) G protein activation assay on CB2 in cell membrane preparations; type: biochemical; parameters: purchased PerkinElmer; Millipore ChemiScreen; Applied Cell Sciences; Signal Screen (Sf9); E. coli BL21 (DE3) and Expi293F membranes were made in house; ES111-M400UA; A318; 6110130; host or cells: CHO, CHO-K1, Sf9, Expi293F, Expi293F GNTI-, E. coli BL21 (DE3)
cannabinoid receptor CB2, sequence (P34972 whole entry): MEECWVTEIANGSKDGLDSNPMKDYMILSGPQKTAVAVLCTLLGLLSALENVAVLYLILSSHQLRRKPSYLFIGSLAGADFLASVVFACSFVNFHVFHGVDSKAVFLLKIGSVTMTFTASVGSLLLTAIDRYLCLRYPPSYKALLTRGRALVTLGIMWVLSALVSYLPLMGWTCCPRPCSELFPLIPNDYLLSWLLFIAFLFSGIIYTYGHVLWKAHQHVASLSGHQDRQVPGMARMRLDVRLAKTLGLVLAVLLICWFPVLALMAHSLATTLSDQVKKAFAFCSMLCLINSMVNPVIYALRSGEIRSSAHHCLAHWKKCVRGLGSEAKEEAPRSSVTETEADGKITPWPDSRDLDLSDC
Description: To better understand the reason for these discrepancies, we assessed the activation of CB2 receptor by the in vitro G protein activation assay that measures the rates of nucleotide exchange on the Gα subunit of G protein (GEF assay) as described previously[33],[34]. The assay reports the rates of formation of the complex of [^35S]-GTPγS, a homolog of GTP, with the Gα subunit of G protein. Typical assay conditions require small (nanogram) quantities of the receptor protein either in cell membranes or reconstituted into lipid bilayers. The readout of the assay is the amount of the non-hydrolysable complex of Gα with [^35S]-GTPγS which, under selected experimental conditions, is proportional to the amount of activated receptor in the assay.
Figure 3 GEF of CB2 expressed in: (a) E. coli membranes and (b) CHO membranes (Millipore EMD). 2 μg of total protein per assay. Each point represents an average of four independent measurements (n = 4). Ligands were added at a concentration of 2 μM to ensure saturation of the receptor, and G protein was added as described in “Methods”. The dotted line indicates the rates of activation of G protein in the absence of a ligand. The rates of activation with […] are set to 100%, and rates of activation in the presence of SR-144,528 to 0%.
Figure 4 GEF on CB2 expressed in different cell lines. An amount of 2 μg of membrane protein per assay was used. Each data points represents an average of four independent measurements (n = 4) with error rates indicated by the bars. 100% represents full activation in the presence of 2 μM of CP-55,940, and 0%–with 2 μM SR-144,528.
The subunits of G protein were expressed and purified as described previously. The nucleotide exchange assay was performed as previously described.

T1 sequence (P34972 whole entry): as above

`CC(=O)OCCn1c(=NC(=O)C2C(C)(C)C2(C)C)sc2cc(Cl)ccc21` [MRI-2646, 2-(6-Chloro-2-((2,2,3,3-tetramethylcyclopropane-1-carbonyl)imino)benzo[d]thiazol-3(2H)-yl)ethyl acetate] was tested, and the Ki (hCB2 [1]) was 0.079 ± 0.011 nM, the Emax (hCB2 [2]; CHO membranes expressing hCB2 (PerkinElmer ES111-M400UA), read-out: GTPγS binding Emax) was -2 ± 4% and the “Functional effect on G-protein signaling (pharmacological category)” value (hCB2 [2]; hCB2-expressing CHO cell membranes (PerkinElmer)) was “no effect on basal signaling”. The “Pharmacological category in GEF assay” value (cannabinoid receptor CB2; CB2 in CHO membranes (EMD Millipore), ligand 2 μM) was “partial inverse agonist”, the “Pharmacological category in GEF assay” value (cannabinoid receptor CB2; CB2 in CHO membranes (PerkinElmer)) was “neutral antagonist” and the “Pharmacological category in GEF assay” value (cannabinoid receptor CB2; CB2 in CHO-K1 membranes (Applied Cell Sciences)) was “partial inverse agonist”. For the same compound, the “Pharmacological category in GEF assay” value (cannabinoid receptor CB2; CB2 in E. coli BL21 (DE3) membranes (untreated), ligand 2 μM) was “partial agonist; also recorded: agonistic effects; also recorded: weaker agonist”, the “Pharmacological category in GEF assay” value (cannabinoid receptor CB2; CB2 in Expi293F GNTI- membranes) was “partial inverse agonist” and the “Pharmacological category in GEF assay” value (cannabinoid receptor CB2; CB2 in Expi293F membranes) was “partial inverse agonist”. For the same compound, the “Pharmacological category in GEF assay” value (cannabinoid receptor CB2; CB2 in baculovirus infected insect Sf9 cell membranes) was “partial agonist”, the “Pharmacological category in GEF assay” value (cannabinoid receptor CB2; CHO membranes (PerkinElmer), with and without exogenous G protein) was “neutral antagonist” and the “Pharmacological category in GEF assay” value (cannabinoid receptor CB2; E. coli membranes treated with 20 mM MβCD/cholesterol) was “neutral antagonist”. For the same compound, the “Pharmacological category in GEF assay” value (cannabinoid receptor CB2; Expi293F membranes treated with 20 mM MβCD (cholesterol depleted)) was “partial agonist”, the “Pharmacological category in GEF assay” value (cannabinoid receptor CB2; Expi293F membranes, with and without exogenous G protein) was “inverse agonist” and the “Pharmacological category in GEF assay” value (cannabinoid receptor CB2; Sf9 membranes, with and without exogenous G protein) was “partial agonist”. For the same compound, the “Pharmacological category on CB2” value (cannabinoid receptor CB2; bacterial- and insect-cell membranes) was “partial agonist”, the “Pharmacological category on CB2” value (cannabinoid receptor CB2; cholesterol-containing membranes) was “neutral antagonist or a partial inverse agonist; also recorded: either as an inverse agonist or a neutral antagonist” and the “Pharmacological category on CB2” value (cannabinoid receptor CB2; mammalian cell membranes) was “inverse agonist or neutral antagonist”. The “Pharmacological category on CB2” value (cannabinoid receptor CB2; membranes devoid of cholesterol) was “partial agonist”.
